Laboratory results reported in ChEMBL document CHEMBL1909551, “Design, synthesis and in vitro evaluation of bridgehead fluoromethyl analogs of N-{2-[4-(2-methoxyphenyl)piperazin-1-yl]ethyl}-N-(pyridin-2-yl)cyclohexanecarboxamide (WAY-100635) for the 5-HT(1A) receptor” (Eur J Med Chem, 2011).
Values belong to the compound of their own block, whether it stands above or below them.

Assays:
[1] = biological target: T1, Alpha-1A adrenergic receptor (Homo sapiens, UniProt P35348)
T1 sequence (P35348 whole entry): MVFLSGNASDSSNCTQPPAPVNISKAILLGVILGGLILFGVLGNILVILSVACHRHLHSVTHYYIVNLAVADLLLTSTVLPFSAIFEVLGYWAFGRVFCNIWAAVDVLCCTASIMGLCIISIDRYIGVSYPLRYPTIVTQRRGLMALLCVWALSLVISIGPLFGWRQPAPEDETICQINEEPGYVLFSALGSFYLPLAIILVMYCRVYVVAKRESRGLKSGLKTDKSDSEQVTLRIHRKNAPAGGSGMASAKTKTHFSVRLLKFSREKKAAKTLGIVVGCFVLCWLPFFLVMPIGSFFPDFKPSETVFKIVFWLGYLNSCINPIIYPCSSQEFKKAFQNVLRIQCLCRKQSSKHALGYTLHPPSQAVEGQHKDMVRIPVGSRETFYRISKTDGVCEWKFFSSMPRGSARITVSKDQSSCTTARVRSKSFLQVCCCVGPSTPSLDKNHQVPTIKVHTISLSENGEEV
Description: Binding affinity to alpha1A receptor

Hepatocyte [2] = conditions: human, hepatocytes, 2.5 h
Description: Metabolic stability in human hepatocytes assessed as compound remaining at 50 MBq after 150 mins by radioactivity-based HPLC analysis

[3] = biological target: T2, 5-hydroxytryptamine receptor 1A (Homo sapiens, UniProt P08908); test: biochemical
T2 sequence (P08908 whole entry): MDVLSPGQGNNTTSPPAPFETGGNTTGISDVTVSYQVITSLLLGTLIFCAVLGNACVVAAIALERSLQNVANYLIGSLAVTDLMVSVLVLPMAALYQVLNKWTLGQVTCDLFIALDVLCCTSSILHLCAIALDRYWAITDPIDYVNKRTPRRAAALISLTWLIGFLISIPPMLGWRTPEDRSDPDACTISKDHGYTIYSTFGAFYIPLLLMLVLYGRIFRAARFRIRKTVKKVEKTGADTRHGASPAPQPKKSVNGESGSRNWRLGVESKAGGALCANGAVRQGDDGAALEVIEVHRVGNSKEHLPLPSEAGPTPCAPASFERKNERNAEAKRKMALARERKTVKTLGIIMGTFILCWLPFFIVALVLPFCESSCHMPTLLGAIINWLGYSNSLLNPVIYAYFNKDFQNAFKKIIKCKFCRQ
Description: Displacement of [3H]8-OH-DPAT from human 5HT1A receptor expressed in HEK293 EBNA cells after 2 hrs by liquid scintillation counting

physchem = conditions: buffer, pH 7.4
D(4) dopamine receptor = biological target: T3, D(4) dopamine receptor (Homo sapiens, UniProt P21917); test: biochemical
T3 sequence (P21917 whole entry): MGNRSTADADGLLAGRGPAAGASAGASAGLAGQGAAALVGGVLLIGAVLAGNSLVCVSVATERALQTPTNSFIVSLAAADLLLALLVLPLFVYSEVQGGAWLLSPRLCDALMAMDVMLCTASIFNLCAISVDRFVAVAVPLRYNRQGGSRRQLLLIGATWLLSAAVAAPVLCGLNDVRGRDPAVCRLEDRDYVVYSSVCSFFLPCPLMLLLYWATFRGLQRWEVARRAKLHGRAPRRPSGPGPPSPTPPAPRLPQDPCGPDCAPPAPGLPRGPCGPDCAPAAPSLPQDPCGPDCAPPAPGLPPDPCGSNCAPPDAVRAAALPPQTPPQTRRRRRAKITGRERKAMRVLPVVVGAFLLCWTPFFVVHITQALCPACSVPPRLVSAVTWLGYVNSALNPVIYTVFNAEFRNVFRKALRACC
Description: Displacement of [3H]N-methylspiperone from dopamine D4 receptor expressed in HEK293 EBNA cells by radioligand binding assay

[4] = biological target: T4, Alpha-1D adrenergic receptor (Homo sapiens, UniProt P25100); test: biochemical
T4 sequence (P25100 whole entry): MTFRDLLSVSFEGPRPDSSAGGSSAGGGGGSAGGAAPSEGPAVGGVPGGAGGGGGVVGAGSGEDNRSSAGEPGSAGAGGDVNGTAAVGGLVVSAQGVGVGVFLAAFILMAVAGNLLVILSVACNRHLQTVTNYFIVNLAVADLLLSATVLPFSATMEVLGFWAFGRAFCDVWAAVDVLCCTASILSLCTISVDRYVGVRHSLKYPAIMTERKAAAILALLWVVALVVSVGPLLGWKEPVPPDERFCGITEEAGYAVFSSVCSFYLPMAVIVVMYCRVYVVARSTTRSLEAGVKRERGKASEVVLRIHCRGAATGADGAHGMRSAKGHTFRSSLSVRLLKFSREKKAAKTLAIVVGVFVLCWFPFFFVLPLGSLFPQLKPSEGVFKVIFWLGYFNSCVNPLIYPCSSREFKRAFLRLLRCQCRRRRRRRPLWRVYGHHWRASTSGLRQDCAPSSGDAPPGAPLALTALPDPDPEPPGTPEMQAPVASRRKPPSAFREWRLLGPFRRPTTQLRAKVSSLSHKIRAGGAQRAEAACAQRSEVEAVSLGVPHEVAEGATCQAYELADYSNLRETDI
Description: Displacement of [3H]prazosin from Alpha-1D receptor expressed in HEK293 EBNA cells by radioligand binding assay

[5] = biological target: T5, Alpha-1B adrenergic receptor (Homo sapiens, UniProt P35368); test: biochemical
T5 sequence (P35368 whole entry): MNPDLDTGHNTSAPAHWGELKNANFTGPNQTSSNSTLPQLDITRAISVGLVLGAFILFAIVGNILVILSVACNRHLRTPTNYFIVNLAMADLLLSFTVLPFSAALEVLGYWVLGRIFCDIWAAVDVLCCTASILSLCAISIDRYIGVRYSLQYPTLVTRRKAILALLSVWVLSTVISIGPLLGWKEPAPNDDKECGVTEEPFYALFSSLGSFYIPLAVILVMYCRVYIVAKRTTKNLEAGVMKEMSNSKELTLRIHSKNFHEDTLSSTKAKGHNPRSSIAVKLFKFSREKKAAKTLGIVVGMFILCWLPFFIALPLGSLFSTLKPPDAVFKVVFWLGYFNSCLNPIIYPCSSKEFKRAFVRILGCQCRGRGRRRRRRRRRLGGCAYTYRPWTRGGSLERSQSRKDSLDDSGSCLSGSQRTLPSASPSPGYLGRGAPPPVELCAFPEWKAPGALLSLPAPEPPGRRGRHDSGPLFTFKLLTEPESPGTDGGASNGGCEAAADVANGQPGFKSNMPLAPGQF
Description: Displacement of [3H]prazosin from Alpha-1B receptor expressed in HEK293 EBNA cells by radioligand binding assay

[6] = biological target: T1, Alpha-1A adrenergic receptor; test: biochemical
Description: Displacement of [3H]prazosin from alpha1A receptor expressed in HEK293 EBNA cells by radioligand binding assay

[7] = biological target: 5-hydroxytryptamine receptor 1D (Homo sapiens, UniProt P28221); test: biochemical
5-hydroxytryptamine receptor 1D, sequence (P28221 whole entry): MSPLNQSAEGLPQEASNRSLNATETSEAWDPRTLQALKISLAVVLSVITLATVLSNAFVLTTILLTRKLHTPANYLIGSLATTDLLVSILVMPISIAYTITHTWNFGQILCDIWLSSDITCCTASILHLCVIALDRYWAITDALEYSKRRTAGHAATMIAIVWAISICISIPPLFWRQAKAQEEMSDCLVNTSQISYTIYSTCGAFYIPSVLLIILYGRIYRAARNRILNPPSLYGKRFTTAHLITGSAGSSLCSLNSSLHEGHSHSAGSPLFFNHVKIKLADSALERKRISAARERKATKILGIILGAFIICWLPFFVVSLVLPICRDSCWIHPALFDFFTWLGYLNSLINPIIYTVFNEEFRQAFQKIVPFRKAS
Description: Displacement of [3H]GR127543 from 5HT1D receptor expressed in HEK293 EBNA cells by radioligand binding assay

[8] = biological target: 5-hydroxytryptamine receptor 7 (Homo sapiens, UniProt P34969); test: biochemical
5-hydroxytryptamine receptor 7, sequence (P34969 whole entry): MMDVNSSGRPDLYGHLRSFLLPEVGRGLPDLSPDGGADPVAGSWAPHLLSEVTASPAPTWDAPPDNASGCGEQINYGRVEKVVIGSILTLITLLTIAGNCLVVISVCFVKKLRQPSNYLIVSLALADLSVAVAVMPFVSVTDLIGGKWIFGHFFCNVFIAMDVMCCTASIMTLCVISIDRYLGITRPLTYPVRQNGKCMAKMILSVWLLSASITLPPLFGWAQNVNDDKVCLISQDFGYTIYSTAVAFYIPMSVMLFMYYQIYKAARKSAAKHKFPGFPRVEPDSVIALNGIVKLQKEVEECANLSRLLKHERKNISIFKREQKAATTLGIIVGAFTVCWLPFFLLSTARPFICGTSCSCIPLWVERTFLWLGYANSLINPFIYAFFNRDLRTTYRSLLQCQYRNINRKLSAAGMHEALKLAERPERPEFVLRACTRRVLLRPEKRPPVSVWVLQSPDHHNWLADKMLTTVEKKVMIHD
Description: Displacement of [3H]LSD from 5HT7 receptor expressed in HEK293 EBNA cells by radioligand binding assay

[9] = biological target: 5-hydroxytryptamine receptor 2B (Homo sapiens, UniProt P41595); test: biochemical
5-hydroxytryptamine receptor 2B, sequence (P41595 whole entry): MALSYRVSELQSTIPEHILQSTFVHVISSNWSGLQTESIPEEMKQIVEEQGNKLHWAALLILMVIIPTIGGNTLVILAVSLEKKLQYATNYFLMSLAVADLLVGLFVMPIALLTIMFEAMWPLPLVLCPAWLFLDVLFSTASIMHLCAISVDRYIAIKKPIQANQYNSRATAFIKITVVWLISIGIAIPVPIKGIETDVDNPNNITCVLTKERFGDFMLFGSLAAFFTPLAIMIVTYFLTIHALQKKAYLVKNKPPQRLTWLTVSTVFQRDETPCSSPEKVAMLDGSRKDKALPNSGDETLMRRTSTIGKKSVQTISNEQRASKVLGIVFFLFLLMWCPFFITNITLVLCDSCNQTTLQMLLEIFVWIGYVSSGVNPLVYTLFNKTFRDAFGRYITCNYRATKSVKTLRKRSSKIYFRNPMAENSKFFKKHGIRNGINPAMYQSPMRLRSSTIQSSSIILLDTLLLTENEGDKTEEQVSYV
Description: Displacement of [3H]LSD from 5HT2B receptor expressed in HEK293 EBNA cells by radioligand binding assay

[10] = biological target: T2, 5-hydroxytryptamine receptor 1A; test: biochemical; remark: listed apart in the source
Description: Displacement of [3H]8-OH-DPAT from 5HT1A receptor expressed in HEK293 EBNA cells by radioligand binding assay

Hepatocyte [11] = conditions: human, hepatocytes, 1 h
Description: Metabolic stability in human hepatocytes assessed as compound remaining at 50 MBq after 60 mins by radioactivity-based HPLC analysis

Hepatocyte [12] = conditions: human, hepatocytes, 0.25 h
Description: Metabolic stability in human hepatocytes assessed as compound remaining at 50 MBq after 15 mins by radioactivity-based HPLC analysis

logD (physchem): 2.94 | IC50 [3]: 1.27 nM | Ki [3]: 0.54 nM | Ki (D(4) dopamine receptor): 71 nM | Ki [4]: 27 nM | Ki [5]: 176 nM | Ki [6]: 16 nM | Ki [7]: 122 nM | Ki [8]: 132 nM | Ki [9]: 99 nM | Ki [10]: 0.2 nM
SMILES: COc1ccccc1N1CCN(CCN(C(=O)C23C4C5C2C2C3C4C52CF)c2ccccn2)CC1 (centres undefined)

IC50 [3]: 2.59 nM | Ki [3]: 1.1 nM
SMILES: O=C(N(CCN1CCN(c2ccccc2O)CC1)c1ccccn1)C12CC3CC(CC(CF)(C3)C1)C2

IC50 [3]: 1.35 nM | Ki [3]: 0.58 nM
SMILES: O=C(N(CCN1CCN(c2ccccc2O)CC1)c1ccccn1)C12C3C4C1C1C2C3C41CF (centres undefined)

IC50 [3]: 1.76 nM | Ki [3]: 0.75 nM
SMILES: O=C(N(CCN1CCN(c2ccccc2O)CC1)c1ccccn1)C12CCC(CF)(CC1)CC2

Ki [1]: 13.2 nM
SMILES: COc1ccccc1N1CCN(CCN(C(=O)c2ccc([18F])c(C)c2)c2ccccn2)CC1

More lines, now with the values behind:

SMILES: COc1ccccc1N1CCN(CCN(C(=O)c2ccc([18F])cc2)c2ccccn2)CC1
Ki [1]: 151 nM | Stability (Hepatocyte [2]): 8.4%

SMILES: COc1ccccc1N1CCN(CCN(C(=O)C23CC4CC(CC(CF)(C4)C2)C3)c2ccccn2)CC1
IC50 [3]: 4.27 nM | Ki [3]: 1.82 nM

SMILES: COc1ccccc1N1CCN(CCN(C(=O)C23CCC(CF)(CC2)CC3)c2ccccn2)CC1
logD (physchem): 3.37 | IC50 [3]: 1.53 nM | Ki [3]: 0.65 nM | Ki (D(4) dopamine receptor): 84 nM | Ki [4]: 73 nM | Ki [5]: 110 nM | Ki [6]: 74 nM | Ki [7]: 361 nM | Ki [8]: 77 nM | Ki [9]: 79 nM | Ki [10]: 1.1 nM

SMILES: COc1ccccc1N1CCN(CCN(C(=O)C23CCC(CF)(CC2)C3)c2ccccn2)CC1
logD (physchem): 2.7 | IC50 [3]: 2.02 nM | Ki [3]: 0.86 nM | Ki (D(4) dopamine receptor): 92 nM | Ki [4]: 19 nM | Ki [5]: 38 nM | Ki [6]: 36 nM | Ki [7]: 92 nM | Ki [8]: 97 nM | Ki [9]: 88 nM | Ki [10]: 0.9 nM

SMILES: O=C(N(CCN1CCN(c2ccccc2O)CC1)c1ccccn1)C12CCC(CF)(CC1)C2
IC50 [3]: 1.74 nM | Ki [3]: 0.74 nM

SMILES: COc1ccccc1N1CCN(CCN(C(=O)C23C4C5C2C2C3C4C52C[18F])c2ccccn2)CC1 (centres undefined)
Stability (Hepatocyte [2]): 17.4% | Stability (Hepatocyte [11]): 30.7% | Stability (Hepatocyte [12]): 73.2%
